Columns and labels:
[1] = target: Proteasome caspase-like activity (S26 protein from RPMI8226 cells) (Homo sapiens (Human), UniProt P28072); test: Proteasome caspase-like activity inhibition (Z-Leu-Leu-Glu-AMC fluorogenic substrate, RPMI8226 cell extract); assay type: biochemical; settings: S26 protein from RPMI8226 cell extract 2 ug/well, substrate 20 uM, 37° C., 90 minutes
Description: The abilities to inhibit the proteasome activity of the compounds described in the Examples of the present invention and boronic acid drugs were evaluated as follows.
RPMI8226 cells, which is a multiple myeloma cell line, were cultured and then separated by a centrifuge, and washed twice with phosphate buffered saline (PBS). 20 mM of a tris-HCl (pH 8.0) buffer solution was added to the washed cells, and the cells were disrupted by a homogenizer and centrifuged to obtain S26 protein from the supernatant. Suc-Leu-Leu-Val-Tyr-AMC, for a fluorogenic substrate for the chymotrypsin-like activity of the proteasome, and Z-Leu-Leu-Glu-AMC, for a fluorogenic substrate for the caspase-like activity, were purchased from Calbiochem, EMD Millipore and used. Into each well of a 96-well plate (opaque, black round bottom), 20 ul of the S26 protein (final RPMI8226 cell extract concentration: 2 ug/well), 10 ul of S26 proteasome inhibitor serially diluted from 10 uM (final DMSO concentration: 0.5%), and 20 ul of the fluorogenic substrate for the proteasome chymotrypsin-like or caspase-like activity (final concentration: 20 uM) were added and mixed and allowed to react in a 37° C. incubator for 90 minutes. The fluorescence of the fluorogenic substrate was measured by FlexStation II Fluorometer (Molecular Devices). The fluorescence inhibited by the compound diluted at each concentration was measured as the relative percentage value for the amount obtained from the treatment only with the S26 protein and the fluorogenic substrate. IC50 (inhibitory concentration 50) was expressed in terms of a concentration that inhibits 50% of the maximum fluorescence induced by the fluorogenic substrate.

[2] = target: Proteasome chymotrypsin-like activity (S26 protein from RPMI8226 cells) (Homo sapiens, UniProt P28074); assay type: biochemical; settings: S26 protein from RPMI8226 cell extract 2 ug/well, substrate 20 uM, 37° C., 90 minutes; read-out: Proteasome chymotrypsin-like activity inhibition IC50
Summary of the method: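 RPMI8226 myeloma cell lysate (S26 fraction, 20 mM Tris-HCl pH 8.0; 2 ug/well) incubated with compound serially diluted from 10 uM (0.5% DMSO) and 20 uM Suc-LLVY-AMC (chymotrypsin-like) or Z-LLE-AMC (caspase-like) for 90 min at 37 °C. Fluorescence read; IC50 from % of uninhibited signal.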

Sequence of Proteasome caspase-like activity (S26 protein from RPMI8226 cells) (P28072 whole entry): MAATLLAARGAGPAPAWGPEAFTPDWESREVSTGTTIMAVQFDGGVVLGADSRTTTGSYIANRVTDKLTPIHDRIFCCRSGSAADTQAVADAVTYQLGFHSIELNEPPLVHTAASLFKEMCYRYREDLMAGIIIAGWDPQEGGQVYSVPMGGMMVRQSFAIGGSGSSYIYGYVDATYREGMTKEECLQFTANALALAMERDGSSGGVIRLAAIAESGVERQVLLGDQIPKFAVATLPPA
Sequence of Proteasome chymotrypsin-like activity (S26 protein from RPMI8226 cells) (P28074 60-263 limits assumed): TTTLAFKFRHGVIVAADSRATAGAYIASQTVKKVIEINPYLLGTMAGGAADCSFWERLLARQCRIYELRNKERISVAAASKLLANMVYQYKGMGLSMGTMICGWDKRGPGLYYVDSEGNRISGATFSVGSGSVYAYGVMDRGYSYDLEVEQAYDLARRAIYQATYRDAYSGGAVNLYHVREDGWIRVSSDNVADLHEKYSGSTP

IC50 [1] [nM] | IC50 [2] [nM] | SMILES
> 250 | < 10 | Cc1nc(COCC2=NOC(Cc3ccccc3)(C(=O)N[C@@H](CC(C)C)B(O)O)C2)cs1 (stereo partly drawn) [Example 46, ((1R)-1-(5-benzyl-3-(((2-methylthiazol-4-yl)methoxy)methyl)-4,5-dihydroisoxazol-5-carboxamido)-3-methylbutyl)boronic acid]
> 250 | < 10 | Cc1cccc(COCC2=NOC(Cc3ccccc3)(C(=O)N[C@@H](CC(C)C)B(O)O)C2)n1 (stereo partly drawn) [Example 47, ((1R)-1-(5-benzyl-3-(((6-methylpyridin-2-yl)methoxy)methyl)-4,5-dihydroisoxazol-5-carboxamido)-3-methylbutyl)boronic acid]
> 250 | < 25 | Cc1cnc(COCC2=NOC(Cc3ccccc3)(C(=O)N[C@@H](CC(C)C)B(O)O)C2)cn1 (stereo partly drawn) [Example 48, ((1R)-1-(5-benzyl-3-(((5-methylpyrazin-2-yl)methoxy)methyl)-4,5-dihydroisoxazol-5-carboxamido)-3-methylbutyl)boronic acid]
> 1000 | < 10 | CC(C)C[C@H](NC(=O)C1(Cc2ccccc2)CC(COCc2nccc3ccccc23)=NO1)B(O)O (stereo partly drawn) [Example 49, ((1R)-1-(5-benzyl-3-((isoquinolin-1-ylmethoxy)methyl)-4,5-dihydroisoxazol-5-carboxamido)-3-methylbutyl)boronic acid]
> 500 | < 10 | Cc1nc(C)c(COCC2=NOC(Cc3ccccc3)(C(=O)N[C@@H](CC(C)C)B(O)O)C2)s1 (stereo partly drawn) [Example 51, ((1R)-1-(5-benzyl-3-(((2,4-dimethylthiazol-5-yl)methoxy)methyl)-4,5-dihydroisoxazol-5-carboxamido)-3-methylbutyl)boronic acid]
> 500 | < 100 | CC(C)C[C@H](NC(=O)C1CC(CNC(=O)c2ccccc2)=NO1)B(O)O (stereo partly drawn) [Example 59, ((1R)-1-(3-(benzamidomethyl)-4,5-dihydroisoxazol-5-carboxamido)-3-methylbutyl)boronic acid]
> 500 | < 10 | CC(C)C[C@H](NC(=O)C1CC(CNC(=O)c2nccc3ccccc23)=NO1)B(O)O (stereo partly drawn) [Example 61, ((1R)-1-(3-((isoquinolin-1-carboxamido)methyl)-4,5-dihydroisoxazol-5-carboxamido)-3-methylbutyl)boronic acid]
> 500 | < 10 | CC(C)C[C@H](NC(=O)C1CC(CNC(=O)c2cccc3c2CCCC3)=NO1)B(O)O (stereo partly drawn) [Example 63, ((1R)-3-methyl-1-(3-((5,6,7,8-tetrahydronaphthalen-1-carboxamido)methyl)-4,5-dihydroisoxazol-5-carboxamido)butyl)boronic acid]
> 250 | < 10 | CC(C)C[C@H](NC(=O)C1CC(CNC(=O)c2cccc3ccccc23)=NO1)B(O)O (stereo partly drawn) [Example 64, ((1R)-1-(3-((1-naphthamido)methyl)-4,5-dihydroisoxazol-5-carboxamido)-3-methylbutyl)boronic acid]
> 500 | < 10 | CC(C)C[C@H](NC(=O)C1CC(CNC(=O)c2cc(Cl)ccc2Cl)=NO1)B(O)O (stereo partly drawn) [Example 68, ((1R)-1-(3-((2,5-dichlorobenzamido)methyl)-4,5-dihydroisoxazol-5-carboxamido)-3-methylbutyl)boronic acid]
> 250 | < 25 | CC(C)C[C@H](NC(=O)C1CC(CNC(=O)c2cccc(Oc3ccccc3)c2)=NO1)B(O)O (stereo partly drawn) [Example 71, ((1R)-3-methyl-1-(3-((3-phenoxybenzamido)methyl)-4,5-dihydroisoxazol-5-carboxamido)butyl)boronic acid]
> 100 | < 10 | CC(C)C[C@H](NC(=O)C1CC([C@@H](NC(=O)c2cc(Cl)ccc2Cl)C(C)C)=NO1)B(O)O (stereo partly drawn) [Example 72, ((1R)-1-(3-((S)-1-(2,5-dichlorobenzamido)-2-methylpropyl)-4,5-dihydroisoxazol-5-carboxamido)-3-methylbutyl)boronic acid]
> 100 | < 25 | CC(C)C[C@H](NC(=O)C1CC([C@H](CC(C)C)NC(=O)c2nccc3ccccc23)=NO1)B(O)O (stereo partly drawn) [Example 73, ((1R)-1-(3-((S)-1-(isoquinolin-1-carboxamido)-3-methylbutyl)-4,5-dihydroisoxazol-5-carboxamido)-3-methylbutyl)boronic acid]
> 500 | < 25 | CC(C)C[C@H](NC(=O)C1CC([C@H](CC(C)C)NC(=O)c2cc(Cl)ccc2Cl)=NO1)B(O)O (stereo partly drawn) [Example 74, ((1R)-1-(3-((S)-1-(2,5-dichlorobenzamido)-3-methylbutyl)-4,5-dihydroisoxazol-5-carboxamido)-3-methylbutyl)boronic acid]
> 500 | < 50 | Cc1ccc(F)cc1C(=O)NCC1=NOC(C(=O)N[C@@H](CC(C)C)B(O)O)C1 (stereo partly drawn) [Example 82, ((1R)-1-(3-((5-fluoro-2-methylbenzamido)methyl)-4,5-dihydroisoxazol-5-carboxamido)-3-methylbutyl)boronic acid]
> 1000 | < 10 | CC(C)C[C@H](NC(=O)C1(Cc2ccccc2)CC(CNC(=O)c2nccc3ccccc23)=NO1)B(O)O (stereo partly drawn) [Example 84, ((1R)-1-(5-benzyl-3-((isoquinolin-1-carboxamido)methyl)-4,5-dihydroisoxazol-5-carboxamido)-3-methylbutyl)boronic acid]
> 1000 | < 10 | CC(C)C[C@H](NC(=O)C1(Cc2ccccc2)CC(CNC(=O)c2cc(Cl)ccc2Cl)=NO1)B(O)O (stereo partly drawn) [Example 85, ((1R)-1-(5-benzyl-3-((2,5-dichlorobenzamido)methyl)-4,5-dihydroisoxazol-5-carboxamido)-3-methylbutyl)boronic acid]
 | < 25 | CC(C)C[C@H](NC(=O)C1(Cc2ccccc2)CC(CNC(=O)c2cccc3ncnn23)=NO1)B(O)O (some centres unmarked) [Example 312]
 | < 10 | O=C(NCC1=NOC(Cc2ccccc2)(C(=O)N[C@@H](Cc2ccccc2)B(O)O)C1)c1cccc2ncnn12 (stereo partly drawn) [Example 313, ((1R)-1-(3-(([1,2,4]triazolo[1,5-a]pyridin-5-carboxamido)methyl)-5-benzyl-4,5-dihydroisoxazol-5-carboxamido)-2-phenylethyl)boronic acid]
 | < 10 | CC[C@H](NC(=O)C1(Cc2ccccc2)CC(CNC(=O)c2cc(Cl)ccc2Cl)=NO1)B(O)O (stereo partly drawn) [Example 314, ((1R)-1-(5-benzyl-3-((2,5-dichlorobenzamido)methyl)-4,5-dihydroisoxazol-5-carboxamido)propyl)boronic acid]
 | < 10 | CC(C)[C@H](NC(=O)C1(Cc2ccccc2)CC(CNC(=O)c2cc(Cl)ccc2Cl)=NO1)B(O)O (stereo partly drawn) [Example 315, ((1R)-1-(5-benzyl-3-((2,5-dichlorobenzamido)methyl)-4,5-dihydroisoxazol-5-carboxamido)-2-methylpropyl)boronic acid]
 | < 10 | CC(C)C[C@H](NC(=O)C1(Cc2ccccc2)CC(CNC(=O)c2cccc(C#N)c2)=NO1)B(O)O (some centres unmarked) [Example 316]
 | < 10 | N#Cc1cccc(C(=O)NCC2=NOC(Cc3ccccc3)(C(=O)N[C@@H](Cc3ccccc3)B(O)O)C2)c1 (stereo partly drawn) [Example 317, ((1R)-1-(5-benzyl-3-((3-cyanobenzamido)methyl)-4,5-dihydroisoxazol-5-carboxamido)-2-phenylethyl)boronic acid]
 | < 25 | CC[C@H](NC(=O)C1(Cc2ccccc2)CC(CNC(=O)c2cccc(Cl)n2)=NO1)B(O)O (stereo partly drawn) [Example 318, ((1R)-1-(5-benzyl-3-((6-chloropicolinamido)methyl)-4,5-dihydroisoxazol-5-carboxamido)propyl)boronic acid]
 | < 10 | CC(C)[C@H](NC(=O)C1(Cc2ccccc2)CC(CNC(=O)c2cccc(Cl)n2)=NO1)B(O)O (stereo partly drawn) [Example 319, ((1R)-1-(5-benzyl-3-((6-chloropicolinamido)methyl)-4,5-dihydroisoxazol-5-carboxamido)-2-methylpropyl)boronic acid]
 | < 10 | CC(=O)Nc1cccc(C(=O)NCC2=NOC(Cc3ccccc3)(C(=O)N[C@@H](CC(C)C)B(O)O)C2)c1 (some centres unmarked) [Example 320]
 | < 10 | CC(C)C[C@H](NC(=O)C1(Cc2ccccc2)CC(CNC(=O)c2cccc(N(C)C)c2)=NO1)B(O)O (some centres unmarked) [Example 321]
 | < 10 | COc1cccc(C(=O)NCC2=NOC(Cc3ccccc3)(C(=O)N[C@@H](CC(C)C)B(O)O)C2)n1 (some centres unmarked) [Example 322]
 | < 10 | CC(C)C[C@H](NC(=O)C1(Cc2ccccc2)CC(CNC(=O)c2cccc(C#N)n2)=NO1)B(O)O (some centres unmarked) [Example 323]
7 |  | CC(C)C[C@H](NC(=O)CNC(=O)c1cc(Cl)ccc1Cl)B(O)O [ixazomib]
